Results: patent US10034880B2, “Ophthalmic suspension formulation” (Sumitomo Dainippon Pharma Co., Ltd., priority 2014, dated 2018)
Entries after “also recorded” stand apart in the source; their conditions may differ. Read-outs that look alike come from different tables or passages of the source. Values belong to the molecule of their own block, whether it stands above or below them.

Experiments:
[1] = Evaluation of transferability to posterior eye segment in rats (V); type: in vivo, SD rats; conditions: ophthalmic suspension formulations, eyedrops 5 μL for one eye once; 60 minutes after administration
Method: To both eyes of SD rats, ophthalmic formulation I, ophthalmic formulation F, ophthalmic formulation G, ophthalmic formulation X1, ophthalmic formulation X2, ophthalmic formulation Y1, or ophthalmic formulation Y2 was administered in eyedrops in the amount of 5 μL for one eye once. 60 minutes after the administration, each concentration of Compound A in retina was measured.

[2] = tested on: VEGF production in retina; conditions: oral repetitive administration, SDT rats; cited from earlier work
[3] = tested on: normal human retinal capillary endothelial cell (HREC); assay: Cell migration assay: inhibition of facilitatory action of cell migration by VEGF stimulation; type: cell-based
Method: The anti-VEGF action of Compound A was evaluated by an experimental method (cell migration assay) described in J Diabetes Complications. 2012; 26(5):369-77. In the experiment, a normal human retinal capillary endothelial cell (HREC) which was obtained from Cell System Co., LTD. was used, and a cell culture used herein was CS-C medium (Cell System Co., LTD.). […] As for Lucentis, its formulation stock solution was diluted with the cell culture, wherein the dilution ratio was 50 μL of the formulation stock solution per 4 mL of the cell culture, and the diluted solution was used in the experiment. The HREC was seeded in 6-well plate, and it was incubated until the confluency became 80-90%. 20-24 hours before assaying the cell migration by the VEGF stimulation, the cell culture was changed to a cell culture containing 0.1% fetal bovine serum. Then, the culture cell monolayer was wounded with a 200 μL pipette tip at one point per well, and the width of the wounds were measured with a microscope. […] About 18 hours after changing the cell culture, each width of the wounds was measured with a microscope, and the anti-VEGF action was evaluated by comparing the width with that of the just-wounded one.

aldose reductase = aldose reductase (Homo sapiens, UniProt P15121); assay: AR inhibitory action; type: biochemical
[4] = Evaluation of transferability to posterior eye segment in rats (I-1) and (I-2); type: in vivo; conditions: SDT, rat, oral repetitive administration 1.0 mg/kg once a day for 21 days, 60 minutes after final administration
Method: To both eyes of rat model of diabetes, ophthalmic suspension formulation A1 wherein Compound A was suspended in a generally-tolerated dose as a suspension formulation (200 mg/mL) or ophthalmic solution formulation Z wherein Compound A was dissolved (400 μg/mL) was administered in eyedrops in the amount of 5 μL for one eye (which is a maximum tolerated dose for eyedrops in rats) totally 5 times at intervals of 5 minutes. 60 minutes after the administration, each concentration of Compound A in cornea, retina and plasma was measured.
Eyedrop has a limitation about tolerated volume of one shot, which is different from other dosage forms. Thus, the delivery amount of the drug to the target tissue which is obtained from eyedrop of a maximum tolerated dose is important. The tolerated volume varies depending on animal species, and the maximum volume in rats is 5 μL for one eye. […]
In addition, Diabetic Retinopathy, INTECH, Chapter 15 “Prophylactic Medical Treatment of Diabetic Retinopathy”, Akihiro Kakehashi et al. disclose an experiment of oral repetitive administration of Compound A to SDT rats, wherein the dose of Compound A making the retinal capillary weakened and the VEGF production in retina inhibited is 1.0 mg/kg. […] 60 minutes after the final administration, each concentration of Compound A in cornea, retina and plasma was measured.

Molecule: O=C1C[C@@]2(C(=O)N1)C(=O)N(Cc1ccc(Br)cc1F)C(=O)c1cccn12 [Compound A, (R)-(−)-2-(4-bromo-2-fluorobenzyl)-1,2,3,4-tetrahydropyrrolo[1,2-a]pyrazine-4-spiro-3′-pyrrolidine-1,2′,3,5′-tetrone]
oral dose making the retinal capillary weakened and the VEGF production in retina inhibited [2]: 1.0 mg/kg | action inhibiting the HREC migration, comparison ([3]; 1 nM Compound A, VEGF stimulation, about 18 hours): in the same level as that of 100 nM ((28 ng/mL)/L) Compound C; also recorded: more potent than that of 1000 nM ((320 ng/mL)/L) Compound B; also recorded: in the same level as Lucentis | Ki (aldose reductase): 0.23 nM | AR inhibitory action, action ratio relative to Compound A (aldose reductase; figure in brackets): 1.0 × | delivery to retina [1]: delivered to retina much more than the ophthalmic suspension formulation comprising Compound B or C | Kp at 60 min ([4]; cornea and plasma (cornea/plasma ratio), read-out: concentration ratio cornea to plasma (plasma:cornea:retina, plasma = 1)): ~1 | Kp at 60 min ([4]; retina and plasma (retina/plasma ratio), po, 1 mg/kg, read-out: retina/plasma ratio): ~1

B1: Lucentis: anti-VEGF antibody formulation (general name: ranibizumab) (antibody, chains of the INN, looked up, V domains shown)
VH: EVQLVESGGGLVQPGGSLRLSCAASGYDFTHYGMNWVRQAPGKGLEWVGWINTYTGEPTYAADFKRRFTFSLDTSKSTAYLQMNSLRAEDTAVYYCAKYPYYYGTSHWYFDVWGQGTLVTVSS
VL: DIQLTQSPSSLSASVGDRVTITCSASQDISNYLNWYQQKPGKAPKVLIYFTSSLHSGVPSRFSGSGSGTDFTLTISSLQPEDFATYYCQQYSTVPWTFGQGTKVEIK
inhibition of HREC migration facilitated by VEGF stimulation ([3]; about 18 hours after changing the cell culture): inhibited the migration

Other lines, results leading:

delivery to retina [1]: hardly delivered to retina
Molecule: NC(=O)[C@@H]1C[C@]2(NC(=O)NC2=O)c2cc(F)ccc2O1 [Compound C, (2S,4S)-6-fluoro-2′,5′-dioxospiro[chroman-4,4′-imidazolidine]-2-carboxamide]

delivery to retina [1]: hardly delivered to retina
Molecule: CC(/C=C1\SC(=S)N(CC(=O)O)C1=O)=C\c1ccccc1 [Compound B, [5-[(1Z,2E)-2-methyl-3-phenylallylidene]-4-oxo-2-thioxothiazolidin-3-yl]acetic acid]
